COC(=O)Nc1nc2ccc(Sc3ccccc3)cc2[nH]1
solubility (mole fraction)
Conditions	in 1,4-dioxane	in acetone	in acetonitrile	in ethanol	in ethyl acetate	in isopropanol	in methanol	in n-butanol	in n-propanol
273.15 K	–	0.000154	1.31e-05	4.24e-05	0.000266	2.01e-05	3.69e-05	7.43e-05	5.94e-05
278.15 K	–	0.000167	1.53e-05	4.62e-05	0.000308	2.39e-05	3.99e-05	8.03e-05	6.58e-05
283.15 K	–	0.00018	1.79e-05	5.02e-05	0.000361	2.8e-05	4.28e-05	8.71e-05	7.33e-05
288.15 K	0.0011	0.000194	2.06e-05	5.44e-05	0.000415	3.24e-05	4.57e-05	9.47e-05	8.16e-05
293.15 K	0.00127	0.000209	2.36e-05	5.92e-05	0.000468	3.65e-05	4.86e-05	0.000102	8.97e-05
298.15 K	0.00145	0.000225	2.68e-05	6.41e-05	0.000533	4.12e-05	5.14e-05	0.000111	9.97e-05
303.15 K	0.00166	0.000241	3.06e-05	6.99e-05	0.000601	4.62e-05	5.54e-05	0.00012	0.000111
308.15 K	0.00189	0.00026	3.47e-05	7.62e-05	0.000684	5.2e-05	5.94e-05	0.000132	0.000123
313.15 K	0.00214	0.00028	3.99e-05	8.36e-05	0.000768	5.82e-05	6.33e-05	0.000143	0.000137

— BigSolDB 2.1
